From patent publication US20240124510A1, “Cyclic Glycoaminoacid Derivatives” (TFCHEM, priority 2021, published 2024)
“And” between values parts separate entries of the source, which are not always exact repeats. Identical values can stand only once.

How the values were obtained:
[1] = test system: normal human dermal fibroblasts (NHDF); assay: Signalling pathway analysis (Ingenuity Pathway Analysis, activation z-score); conditions: for Activation z- score: 2 mg/ml on NHDF
Source text: • Results are considered and presented per gene (and not probe). A probe set is a collection of probes designed to interrogate a given sequence of a gene. […] Gene Ontology database has been more specifically used for the data interpretation. DAVID functional annotation part was used to cluster modulated genes into significant biological processes. […] DAVID database uses the Gene Ontology consortium (http://www.geneontology.org) vocabularies (GO terms) to describe gene products in terms of their associated biological processes. Among them, only biological processes with p-value ≤0.05 were taken into account. • Signal transduction pathway analsis: The results were then processed with IPA (Ingenuity Pathway Analysis, Qiagen®) software to identify signal transduction pathways modulated by each treatment. This software takes into account the Fold Change values of each gene and, when there is enough information, the direction of modulation of the signal transduction pathways can be identified. The relevance of the effect of each treatment on a given pathway was quantified by z-score. The z-score predicts the directional change on that effect.
A more advanced bioinformatics analysis was performed using the Ingenuity Pathway Analysis software (IPA from Qiagen®). This analysis allows the identification of the impacted signalling pathways and predicts their modulation. The modulation is a stimulation when the Activation z-score is a positive value (Table 11) and an inhibition when the Activation z-score is a negative value (Table 12).

Collagen I fibers = assay: Quantity of Collagen 1 fibers produced by preadipocytes in inflammatory condition (immunofluorescence); format: cell-based, human; conditions: for Collagen I fibers quantity, Mean (%) / Collagen I fibers quantity, Values (%): inflammatory condition, normalized by cells number (Dapi); for Collagen I fibers quantity, Values (%): individual values; for Collagen I fibers quantity compared to the AcMC control condition fixed at 100%: preadipocytes
Procedure: Preadipocytes have been isolated from human female hypodermis (body mass index <30 kg/m2 and <45 years old). Preadipocytes have been cultured for 24 h in 100 μl of DMEM-10% Fetal Bovine Serum (FBS) in 96-well plates. Then cells were treated to induce their differentiation in a classical or an inflammatory environment for 13 days.
To induce the preadipocytes differentiation cells were incubated in a proadipogenic cocktail (PAC) including insulin, glucocorticoid, 3-isobutyl-1-methylxanthine (IBMX), and thiazolinedione in DMEM.
To induce a fibro-inflammatory environment, cells were treated with an activated human macrophage-conditioned medium (AcMC) prepared in RPMI medium. A treatment with Dexamethasone (DXM) at 100 nM was used as anti-inflammatory response control. At D0: preadipocytes have been treated in the following conditions: • “Undifferentiation”: DMEM+¼ RPMI medium • “Differentiation”: PAC+¼ RPMI medium • “AcMC” i.e. inflammatory condition: PAC+¼ AcMC • “AcMC+DXM”: PAC+[…] AcMC+anti-inflammatory DXM at 100 nM • “AcMc+compounds”: PAC+14 AcMC+compounds to be tested
One month after fixation of preadipocytes cultivated in pro-inflammatory environment, cells were incubated with 3% Bovine Serum Albumin (BSA) for 30 min in order to block the non-specific sites, then with primary antibody anti-collagen 1 (Novusbio, NB600-408) over-night. After washes with PBS, cells were incubated for 30 min with 3% BSA and then with the secondary antibodies (Goat anti-rabbit alexa-fluor 488, ThermoFisher, A11008) and DAPI (for nuclei staining) for 1 h. After several washes, the acquisition and the quantification were performed with a fluorescent video-microscope. Briefly, the quantification was based on the detection and quantification of cell nuclei stained with DAPI, and the detection of collagen 1 staining. Collagen 1 fibers were detected and measured for their length, thickness and intensity. A Collagen 1 fibers quantity was calculated (Quantity=length*thickness*fluorescence intensity) and normalized by cells number (DAPI staining).
Collagen I fibers (fibrillar collagen I) quantity was quantified and the data were normalized by cell number (DAPI staining, quantification of nuclei number). Data are represented in percentage of proinflammatory control conditions (AcMC condition).

[2] = test system: neonatal skin fibroblasts (CCD-27SK); assay: Preservation/protection of neonatal skin fibroblasts under starvation conditions, neutral red uptake assay; format: cell-based, human; conditions: for Variation of viability (stressed cells treated with compound 6 vs stressed cells): 17 mM; for OD 540 nm - mean value (cell viability): starvation medium + 17 mM
Procedure: The neonatal skin fibroblasts (Cell line: CCD-27SK. ATCC number CRL-1475) were grown with DMEM medium supplemented with Fetal Bovine Serum 10% final, antibiotics (Penicillin/Streptomycin) 1% final and Amphotericin B 0.1% final. Fibroblasts were grown in 75 cm^2 culture flask to 80% confluence in 37° C. and 10% CO2 incubator. The medium was changed every two days by 37° C. preheated fresh medium.
This medium was composed of 45% subculturing medium without Fetal Bovine Serum mixed with 55% of Phosphate Buffer Saline IX containing EDTA (final concentration of 0.45 mM). This was referred to as serum-free medium or starvation medium.
Compound 6 (MM=356.3 g/mol) was diluted in starvation medium to 17 mM final and pH was adjusted at 7.4 by addition of NaOH 1N.
Fibroblast cells were concentrated to 2.10^5 cells/ml and 100 μl of cell suspension was added in wells of a 96-well plate and incubated in 37° C. and 10% CO2 incubator for 4 hours.
After cell adhesion the medium was changed and plates were incubated (37° C.-10% CO2) to perform the assay as follows: • One plate for each sampling times: D0, D4, D7 days; • Three wells for each condition (triplicate count) added with 120 μl of culture medium (surviving control), starvation medium (serum-free control) or compound 6 solution at 17 mM.
The neutral red uptake assay was used for the determination of cell viability. This assay is based on the ability of viable cells to incorporate and bind the supravital dye neutral red in its lysosomes. Thus, only the viable cells are dyed. At D4 and D7, the plates were incubated with neutral red solution for 3.5 hours. The cells are subsequently washed, the dye is extracted in each well and the absorbance is read using a spectrophotometer.
For sampling, 1 mL of DMEM (without phenol red indicator) with neutral red (OD=0.110) was added to the cells for 3.5 hours (37° C. 10% CO2). After incubation. the medium was removed. Two washes with PBS were realized and 1 mL of extraction solution (absolute ethanol 49%, ultrapure water 49%, glacial acetic acid 2%) was added. Plates were placed 15 minutes on rotary shaker in the dark before reading OD at 540 nm.
The OD540 nm average values were compared and the variation of viability was calculated as follows:
Variation of viability at Dx=(OD540 nm of tested solution−blank) at Dx/(OD540 nm of stress control−blank) at Dx.

N[C@H]1CCCN(CC(F)(F)[C@]2(O)O[C@H](CO)[C@H](O)[C@H](O)[C@H]2O)C1=O [Compound 6]
Activation z- score ([1]; Diseases or Functions Annotation: Differentiation of adipocytes): 0.545
Activation z- score ([1]; Diseases or Functions Annotation: Metabolism of cholesterol): 1.421
Activation z- score ([1]; Diseases or Functions Annotation: Synthesis of cholesterol): 0.998
Activation z- score ([1]; Diseases or Functions Annotation: Synthesis of lipids, z-score >0 = increased): 1.380
Regulation of fibrogenesis, tensile strength of skin, synthesis of ROS, inflammatory response and chronic inflammatory disorder at a transcriptional level ([1]; treatment of NHDF): down regulation
Regulation of lipid and cholesterol synthesis and differentiation of adipocytes at a transcriptional level ([1]; treatment of NHDF): up regulation
Collagen I fibers quantity, Mean (%) (Collagen I fibers; 1 mg/ml): 154 % of AcMC condition
Collagen I fibers quantity, Values (%) (Collagen I fibers; 1 mg/ml): 136.7 % of AcMC condition and 160.5 % of AcMC condition and 165.3 % of AcMC condition
Collagen I fibers quantity, Mean (%) (Collagen I fibers; 2 mg/ml): 213 % of AcMC condition
Collagen I fibers quantity, Values (%) (Collagen I fibers; 2 mg/ml): 193.5 % of AcMC condition and 230.7 % of AcMC condition and 213.7 % of AcMC condition
Collagen I fibers quantity compared to the AcMC control condition fixed at 100% (Collagen I fibers; 1 mg/ml): 154%
Collagen I fibers quantity compared to the AcMC control condition fixed at 100% (Collagen I fibers; 2 mg/ml): 213%
Variation of viability (stressed cells treated with compound 6 vs stressed cells) ([2]; D 4): 2.3 and 2.32
OD 540 nm - mean value (cell viability) ([2]; D 4): 0.274
Variation of viability (stressed cells treated with compound 6 vs stressed cells) ([2]; D 7): 3.4 and 3.39
OD 540 nm - mean value (cell viability) ([2]; D 7): 0.224
